According to patent publication US9981920B2, “Inhibitors of histone deacetylase” (Rodin Therapeutics, Inc., priority 2014, dated 2018):

The compounds below were run against T1, HDAC2 (Homo sapiens, UniProt Q92769) (assay: Reporter displacement assay (HDAC2 Kd)). Conditions: HDAC2 with C-terminal HIS-Tag 20 nM, 180 nM reporter probe, read after 4 h; Kd by Cheng Prusoff from probe displacement.
T1 construct: purchased Proteros
Assay type: binding
Method: HDAC2 containing a C-terminal HIS-Tag (Proteros) and fluorescently-labeled anti-HIS-antibody are diluted in one vial in assay buffer 50 mM Tris, pH 8.0, 1 mM DTT, 150 mM NaCl, and 0.01% Tween20. Components are pre-incubated for 30 min, then a small volume of reporter probe (Proteros) is added from a highly concentrated stock and incubation is continued for another 30 min. Final concentrations after adding the reporter probe amount to 20 nM HDAC2, 4 nM antibody, and 180 nM probe.
Ten μl/well of pre-formed complex are transferred into 384 well assay plates (Corning). Compounds to be profiled are serially diluted from 1×10^1-5.7×10^−5 mM in DMSO and 60 nl are added to assay plates by pintool transfer (CybiWell, Cybio). Fluorescence intensity signal is read after 4 h in a Pherastar FS (BMG Labtech) at 337/665 nm.
For Kd determination, percent probe displacement values are calculated for each compound concentration and plotted against the compound concentration. IC50-like values (corresponding to 50% probe displacement) are calculated using standard fitting algorithms. Since the reporter probe is used at a concentration reflecting its own Kd value, compound Kd values can be calculated according to the Cheng Prusoff equation.
In the table, “A” indicates a Kd value of less than 0.1 μM; “B” a Kd value of between 0.1 μM and 1.0 μM; “C” a Kd value of greater than 1.0 μM and less than or equal to 10.0 μM; and “D” a Kd value of greater than 10.0 μM.

T1 sequence (Q92769 whole entry): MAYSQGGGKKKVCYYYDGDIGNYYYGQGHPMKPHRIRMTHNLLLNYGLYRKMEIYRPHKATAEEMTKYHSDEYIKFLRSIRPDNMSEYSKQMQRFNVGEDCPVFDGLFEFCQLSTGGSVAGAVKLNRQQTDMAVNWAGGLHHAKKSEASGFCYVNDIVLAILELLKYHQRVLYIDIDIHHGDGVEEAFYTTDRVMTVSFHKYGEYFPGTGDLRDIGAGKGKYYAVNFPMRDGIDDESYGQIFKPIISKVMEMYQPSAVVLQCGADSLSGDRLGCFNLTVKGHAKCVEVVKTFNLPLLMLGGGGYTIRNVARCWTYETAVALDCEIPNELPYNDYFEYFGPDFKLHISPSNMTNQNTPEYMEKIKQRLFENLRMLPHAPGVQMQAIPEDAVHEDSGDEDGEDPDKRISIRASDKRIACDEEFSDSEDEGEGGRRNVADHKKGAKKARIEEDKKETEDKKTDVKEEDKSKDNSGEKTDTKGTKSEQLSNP

Structure (SMILES)	Kd [nM]
C=CCn1c(SCC(=O)c2ccc(C)cc2)nc(O)cc1=O [Compound 101]	< 100
CCn1c(SCC(=O)c2ccccc2)nc(O)cc1=O [Compound 102]	< 100
Cc1ccc(C(=O)CSc2nc(C)cc(=O)[nH]2)cc1 [Compound 104]	100 to 1000
CCc1ccc(C(=O)CSc2nc(C)cc(=O)[nH]2)cc1 [Compound 105]	1000 to 10000
C=CCn1c(SCC(O)c2ccc(C)cc2)nc(O)cc1=O (stereo not shown) [Compound 108]	100 to 1000
O=C(CSc1nc(O)c(Cc2ccccc2)c(=O)[nH]1)c1ccccc1 [Compound 111]	100 to 1000
Cc1ccc(C(=O)CSc2nc(O)cc(=O)n2C)cc1 [Compound 112]	100 to 1000
Cc1ccc(C(=O)CSc2nc(O)cc(=O)n2C(C)C)cc1 [Compound 113]	100 to 1000
CC(=O)Nc1ccc(/C(CSc2nc(O)cc(=O)[nH]2)=N\O)cc1 [Compound 114]	1000 to 10000
CC(=O)Nc1ccc(C(=O)CSc2nc(O)cc(=O)n2C)cc1 [Compound 116]	< 100
CC(=O)Nc1ccc(C(=O)CSc2nc(O)cc(=O)n2C(C)C)cc1 [Compound 118]	< 100
CC(=O)Nc1ccc(C(=O)CSc2nc(O)c(-c3ccccc3)c(=O)[nH]2)cc1 [Compound 119]	< 100
COc1ccc(C(=O)CSc2nc(O)cc(=O)[nH]2)cc1 [Compound 120]	100 to 1000
Nc1ccc(C(=O)CSc2nc(O)c(-c3ccccc3)c(=O)[nH]2)cc1 [Compound 122]	100 to 1000
CC(=O)Nc1ccc(C(=O)CSc2nc3ccccc3c(=O)[nH]2)cc1 [Compound 124]	100 to 1000
CC(C)(C)OC(=O)Nc1ccc(C(=O)CSc2nc(O)c(-c3ccccc3)c(=O)[nH]2)cc1 [Compound 126]	100 to 1000
Nc1ccc(C(=O)CSc2nc(O)cc(=O)[nH]2)cc1 [Compound 127]	100 to 1000
CC(C)C(=O)Nc1ccc(C(=O)CSc2nc(O)cc(=O)[nH]2)cc1 [Compound 129]	< 100
CC(=O)Nc1ccc(C(=O)CSc2nc(O)cc(=O)n2C2CCCC2)cc1 [Compound 131]	< 100
CC(C)(C)OC(=O)Nc1ccc(C(=O)CSc2nc(O)cc(=O)[nH]2)cc1 [Compound 135]	100 to 1000
O=C(CSc1nc(O)cc(=O)[nH]1)c1ccc(N2CCCC2=O)cc1 [Compound 137]	< 100
Cc1cccc(C(=O)CSc2nc(O)cc(=O)n2C)c1 [Compound 139]	100 to 1000
Cn1c(SCC(=O)c2cccc(F)c2)nc(O)cc1=O [Compound 142]	< 100
Cn1c(SCC(=O)c2cccc(Cl)c2)nc(O)cc1=O [Compound 144]	100 to 1000

Results, then the compound that gave them:

Kd [nM]	Structure (SMILES)
1000 to 10000	Cc1ccc(C(=O)CSc2nc(O)c3ccccc3n2)cc1 [Compound 100]
< 100	CCc1c(O)nc(SCC(=O)c2ccc(OC)cc2)[nH]c1=O [Compound 103]
< 100	CC(=O)Nc1ccc(C(=O)CSc2nc(O)cc(=O)[nH]2)cc1 [Compound 106]
< 100	Cc1ccc(C(=O)CSc2nc(O)cc(=O)[nH]2)cc1 [Compound 107]
> 10000	Cc1ccc(C(=O)COc2nc(C)cc(=O)[nH]2)cc1 [Compound 109]
< 100	Cc1ccc(C(=O)CSc2nc(O)c(-c3ccccc3)c(=O)[nH]2)cc1 [Compound 110]
100 to 1000	CCn1c(SCC(=O)c2ccc(C)cc2)nc(O)cc1=O [Compound 115]
< 100	CCn1c(SCC(=O)c2ccc(NC(C)=O)cc2)nc(O)cc1=O [Compound 117]
100 to 1000	COc1ccc(C(=O)CSc2nc(O)c(-c3ccccc3)c(=O)[nH]2)cc1 [Compound 121]
< 100	CC(=O)Nc1ccc(C(=O)CSc2nc(O)c(C3CCCC3)c(=O)[nH]2)cc1 [Compound 123]
< 100	O=C(CSc1nc(O)c(-c2ccccc2)c(=O)[nH]1)c1ccc(NC(=O)c2ccccc2)cc1 [Compound 125]
< 100	O=C(CSc1nc(O)cc(=O)[nH]1)c1ccc(NC(=O)C(F)(F)F)cc1 [Compound 128]
100 to 1000	O=C(CSc1nc(O)cc(=O)[nH]1)c1ccc(NC(=O)c2ccccc2)cc1 [Compound 130]
100 to 1000	CC(=O)Nc1ccc(C(=O)CSc2nc(O)cc(=O)n2-c2ccccc2)cc1 [Compound 132]
< 100	CC(=O)N(C)c1ccc(C(=O)CSc2nc(O)cc(=O)[nH]2)cc1 [Compound 133]
100 to 1000	CN(C)c1ccc(C(=O)CSc2nc(O)cc(=O)[nH]2)cc1 [Compound 134]
100 to 1000	CC(=O)Nc1ccc(C(=O)CSc2nc(O)cc(=O)n2C2CC2)cc1 [Compound 136]
100 to 1000	O=C(CSc1nc(O)cc(=O)[nH]1)c1ccc2[nH]cnc2c1 [Compound 138]
100 to 1000	Cn1c(SCC(=O)c2ccccc2)nc(O)c(-c2ccccc2)c1=O [Compound 140]
100 to 1000	Cn1c(SCC(=O)c2ccc(F)cc2)nc(O)cc1=O [Compound 141]
100 to 1000	Cn1c(SCC(=O)c2ccc(Cl)cc2)nc(O)cc1=O [Compound 143]
100 to 1000	Cc1ccc(C(=O)CSc2nc(=O)c3ccccc3n2C)cc1 [Compound 145]
